Results taken from US6888015B2, “Sphingolipid synthesis inhibitor” (Japan Science and Technology Agency, priority 2001, dated 2005).

Tests used:
[1] = target: T1, serine palmitoyltransferase (Cricetulus griseus, UniProt O54694+O54695); assay: Serine palmitoyltransferase activity, CHO membrane fraction; type: biochemical, Chinese hamster; settings: 20 μM; data not shown
T1 construct: Membrane fraction prepared from CHO cells is used as an enzyme source; endogenous in cells; host or cells: CHO cells, membrane fraction
T1 sequence (O54695 1-473): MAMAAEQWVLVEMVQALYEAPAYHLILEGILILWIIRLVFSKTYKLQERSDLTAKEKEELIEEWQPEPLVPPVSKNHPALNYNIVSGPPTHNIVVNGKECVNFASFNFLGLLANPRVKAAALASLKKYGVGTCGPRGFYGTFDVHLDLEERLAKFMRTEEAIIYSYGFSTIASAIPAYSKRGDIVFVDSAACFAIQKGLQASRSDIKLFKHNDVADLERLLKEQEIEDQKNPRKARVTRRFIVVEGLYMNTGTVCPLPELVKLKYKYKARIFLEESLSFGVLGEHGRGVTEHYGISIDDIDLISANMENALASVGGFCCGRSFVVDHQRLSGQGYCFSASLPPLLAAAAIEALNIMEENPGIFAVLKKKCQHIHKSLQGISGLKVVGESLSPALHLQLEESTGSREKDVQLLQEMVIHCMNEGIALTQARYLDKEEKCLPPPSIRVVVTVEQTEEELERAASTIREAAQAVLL
T1 sequence (O54694 1-560): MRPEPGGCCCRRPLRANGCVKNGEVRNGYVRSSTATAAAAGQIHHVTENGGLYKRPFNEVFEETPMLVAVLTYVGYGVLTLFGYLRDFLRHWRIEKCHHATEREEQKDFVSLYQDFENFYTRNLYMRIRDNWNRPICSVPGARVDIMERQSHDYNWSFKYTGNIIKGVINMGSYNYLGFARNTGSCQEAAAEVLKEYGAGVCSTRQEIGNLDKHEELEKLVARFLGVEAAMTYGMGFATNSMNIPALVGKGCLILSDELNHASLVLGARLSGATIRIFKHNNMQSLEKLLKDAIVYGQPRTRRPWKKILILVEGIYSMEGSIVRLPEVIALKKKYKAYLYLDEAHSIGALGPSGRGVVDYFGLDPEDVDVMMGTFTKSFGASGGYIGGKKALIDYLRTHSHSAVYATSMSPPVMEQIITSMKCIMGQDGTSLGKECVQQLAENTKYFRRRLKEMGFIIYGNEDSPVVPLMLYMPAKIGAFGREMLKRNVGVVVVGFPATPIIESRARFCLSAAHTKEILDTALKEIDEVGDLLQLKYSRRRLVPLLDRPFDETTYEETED
Experimental: (§1) Membrane fraction prepared from CHO cells is used as an enzyme source.
(§2) Serine palmitoyltransferase activity is determined by the method disclosed in Document 7, and sphingosine N-acyl transferase activity is determined by a modification of the method disclosed in Document 7.

[2] = test system: sphingosine N-acyl transferase; assay: Sphingosine N-acyl transferase activity, CHO membrane fraction; type: biochemical, Chinese hamster; settings: 20 μM; data not shown
Experimental: as §1, §2

## CCCCCCCCCCCC(=O)NC(CO)CC(O)c1ccccc1 (centres unmarked) [HPA-12, N-(3-hydroxy-1-hydroxymethyl-3-phenylprol)dodecaneamide]
[1]
  activity of serine palmitoyltransferase: does not affect
[2]
  activity of sphingosine N-acyl transferase: does not affect
